Assay results published in PMC5573760 (Cancer Chemotherapy and Pharmacology, 2017).
“And” between values parts separate entries of the source, which are not always exact repeats. Identical values can stand only once. “Also recorded” adds a separate entry of the source.

Assays:
[1] = cited from earlier work
[2] = system: breast Cancer Resistance Protein (BCRP); set-up: method as in Bayer AG, data on file; settings: in vitro; ref Bayer AG, data on file; cited from earlier work
[3] = Mass balance: excretion of radioactivity, copanlisib and metabolites in urine and feces; type: in vivo, human; settings: for Amount excreted in feces as this component, arithmetic mean (range): HPLC with off-line radioactivity detection
Protocol: After pooling and homogenization of urine and feces samples per time interval, aliquots were stored at −20 °C for total radioactivity determination and at −70°C for metabolic profiling (including blood/plasma samples). For determination of total radioactivity, samples were analyzed with a Perkin Elmer Tri-Carb™ 3100 TR liquid scintillation analyzer (Perkin Elmer, Waltham, MA, USA) with quenching correction. For metabolite profiling, plasma samples were treated with a mixture of acetonitrile (ACN) +0.2% acetic acid, after shaking and centrifugation, the supernatant was concentrated. Urine and feces samples were treated with solid-phase extraction (Waters HLB 30 mg, 1 mL, Waters, Milford, MA, USA) and liquid–liquid extraction (ACN + 0.2% trifluoroacetic acid/water, 80:20 volume/volume), respectively. Subsequently samples from plasma, urine and feces were analyzed by HPLC-LSC on Synergi Polar 4 µm 150 × 2 mm (Phenomenex, Aschaffenburg, Germany) with off-line radioactivity detection by Microbeta^2™ Plus liquid scintillation counter with Ultima Flo™ AP scintillation fluid (Packard Instrument BV, Groningen, The Netherlands).
Metabolite patterns in plasma, urine and feces were studied by the HPLC method with off-line radioactivity detection described above.
A similar approach has been described earlier.

clinical = settings: male, human, in vivo; for clearance: CL (total body clearance); for Tmax: t max; for half-life: t ½ (terminal half-life)
Protocol: All subjects gave written informed consent; the study was conducted at PRA Health Sciences (Zuidlaren, The Netherlands) in accordance with the Declaration of Helsinki and was approved by an accredited institutional ethics committee (Medisch Ethische Toetsings Commissie, Assen, The Netherlands).
Subjects remained fasting until 2-h after the end of the infusion. Volunteers stayed in-house until 14 days after the application and subsequently urine and feces were collected for 24-h on Day 16, 20, 27 and 34 if necessary, cf. below.
Urine was collected pre-dose, at 0–12-h and 12–24 h after the start of the infusion and thereafter over 24-h intervals on Day 2 to Day 14 as well as on Day 16, 20, 27 and 34 (±1 day). Cumulative 24-h fecal samples were collected from Day 1 (day of infusion) to Day 14 and as well as on Day 16, 20, 27 and 34 (±1 day). […] The excreted radioactivity between ambulant visits during the prolongation phase of the clinical study was calculated using interpolation to get a more realistic total excretion value of all subjects (see "Pharmacokinetic analysis").
All samples were frozen at −70 °C and analyzed within 60 days of sample collection.
For blood/plasma ratio determination, total radioactivity in urine and feces well as data from HPLC analysis data from radioactivity measurement by liquid scintillation counting (LSC) were considered. The amount of radioactivity recovered in the excreta (A E) was related to the administered radioactive dose to establish the radioactive balance. Arithmetic means and coefficients of variation (CV) were calculated for these percentages. […] Cumulative excretion was calculated as sum of the collection intervals. The elimination of the total radioactivity in urine and feces for time-points beyond day 14 was performed by log-linear extrapolation between analyzed time-points. Amounts of radioactivity excreted in urine and feces between two ambulant visits were calculated per interpolated day by linear interpolation of log-transformed excretion data separately per matrix (lnA E(interpolated day) = Δdays × [lnA E(Visit i + 1) − lnA E(Visit i)]/[day (Visit i + 1) − day (Visit i)] + lnA E(Visit i), with A E given as amount of radioactivity excreted in matrix per day and Δdays being the difference between the calculated day and the last available visit with A E > 0). In case no feces sample was provided on an ambulant visit, this visit was neglected for interpolation. A similar approach has been described earlier. The concentration/amount for each component of each sample/time-point was calculated by multiplying the total radioactivity concentration/amount of each sample with %-area of each component obtained after off-line HPLC separation. The amount of radioactivity in urine and feces at late time-points where no component was detected was distributed in the same percentage to the component (s) present at the time-point before.
Compartment-free analysis was performed employing WinNonlin software (version 5.3, Pharsight Certara, Princton, NJ, USA).
Pharmacokinetic parameters were evaluated by descriptive data analysis without formal hypothesis testing by calculating either medians (t max, t last) or geometric means and %CV (remaining parameters). Excretion data (urine, feces, total) were evaluated by arithmetic means.

plasma protein = settings: reversible; cited from earlier work
[4] = Safety and tolerability assessment in healthy male volunteers; type: in vivo, human
Excerpt: Physical examination, blood pressure, pulse rate, body temperature and body weight, laboratory parameters and 12-lead electrocardiogram (ECG), as well as adverse events using the common terminology criteria for adverse events (CTCAE) Version 4.03, were monitored throughout the study for safety assessment.

PI3K-δ = settings: cited from earlier work
[5] = all 6 subjects after individual study release (Day 20–Day 34)
[6] = study release at Day 20 (N = 6)
[7] = study release at Day 27 (N = 5)
[8] = study release at Day 34 (N = 3)

## COc1c(OCCCN2CCOCC2)ccc2c1N=C(NC(=O)c1cnc(N)nc1)N1CCN=C21 [Copanlisib, copanlisib]
[1]; %CV 51.2, dose escalation study
  mean systemic plasma clearance: 18.9 L/h
[1]; PK on Cycle 1 Days 1 and 15 and Cycle 3 Day 15, dose escalation study
  Accumulation and time dependency after once weekly dosing: No accumulation and no time dependency
[1]
  Half-life, range (known PK of copanlisib): 16.9 to 72.7 h
[1]; dose range 0.1–1.2 mg/kg (5–93 mg total dose), dose escalation study
  Dose dependence of C max and AUC (0–25): dose proportional increases
[1]; human, in vivo, 0.8 mg/kg
  terminal phase half-life (t 1/2): 39.1 h
  volume of distribution: 871 L
[2]
  Substrate of efflux transporter BCRP: substrate
[3]; [5]
  Total radioactivity excreted in feces, arithmetic mean: 64.2 (56.7–68.1) % of dose
  Total radioactivity excreted in feces, range: 56.7–68.1%
  Total radioactivity excreted in urine, arithmetic mean: 21.7 (17.0–27.4) % of dose
  Total radioactivity excreted in urine, range: 17.0–27.4%
  Total radioactivity recovery in urine and feces, mean: 86% and 85.9 ± 3.4% and about 86%
  Total radioactivity recovery in urine and feces, range: 81.7–91.0%
[3]; 6 subjects
  Amount excreted in feces as this component, arithmetic mean (range): 30.1 (16.8–37.9) % of dose
[3]; 6 subjects, listed as copanlisib
  Amount excreted in feces as this component, arithmetic mean (range): 30 % of dose
[3]; in vivo
  Dose cleared via metabolism: about 41%
  Renal clearance (A e,ur/AUC) as share of total body clearance: about 15%
  Share of observed renal clearance accounted for by passive renal filtration: about one to two-thirds
[3]; [6]
  Excreted radioactivity in feces, mean: 61.0 ± 4.1%
  Excreted radioactivity in feces, range: 54.8–66.7%
  Excreted radioactivity in urine, mean: 20.0 ± 3.5%
  Excreted radioactivity in urine, range: 16.3–26.5%
  Excreted total radioactivity in urine and feces, mean: 81.0 ± 2.1%
  Excreted total radioactivity in urine and feces, range: 77.8–83.0%
[3]; [7]
  Excreted radioactivity in feces, mean: 63.4 ± 4.5%
  Excreted radioactivity in feces, range: 56.7–67.4%
  Excreted radioactivity in urine, mean: 21.5 ± 3.9%
  Excreted radioactivity in urine, range: 17.0–27.4%
  Excreted total radioactivity in urine and feces, mean: 84.9 ± 2.3%
  Excreted total radioactivity in urine and feces, range: 82.3–88.5%
[3]; [8]
  Excreted radioactivity in feces, mean: 66.1 ± 3.2%
  Excreted radioactivity in feces, range: 62.4–68.1%
  Excreted radioactivity in urine, mean: 22.2 ± 1.4%
  Excreted radioactivity in urine, range: 20.6–23.1%
  Excreted total radioactivity in urine and feces, mean: 88.3 ± 2.9%
  Excreted total radioactivity in urine and feces, range: 85.2–91.0%
[3]; urine and feces
  Radioactivity excreted that could be assigned to known structures: Over 98%
[3]; urine plus feces, 6 subjects
  Amount of dose recovered as this component in urine and feces combined: 45.1 % of dose
[3]; urine plus feces, range of 6 subjects
  Amount of dose recovered as this component in urine and feces combined, range: 33.3–53.8%
clinical
  AUC (0–t last) of total radioactivity (%) covered by the component, average: about 84%
clinical; iv
  CL (total body clearance), geometric mean (%CV): 24.8 (41.3%) L/h
  t ½ (terminal half-life), geometric mean (%CV): 52.1 (20.9%) h
  t ½ (terminal half-life), range: 40.4 to 67.5 h
clinical; iv, geometric mean (%CV)
  clearance: ~413 mL/min
  half-life: 52 h
clinical; iv, range
  clearance: 237 to 680 mL/min
  Tmax: 0.5 to 1 h
  half-life: 40 to 67 h
clinical; iv, V z (volume of distribution during terminal phase), geometric mean (%CV)
  Vd: ~1870 L
clinical; iv, V z, range
  Vd: 1250 to 2450 L
clinical; iv, median
  Tmax: 1 h
Plasma protein
  free fraction (fraction unbound in plasma), plasma protein binding: 15.8%
[4]; 12 mg, 6 healthy subjects
  Adverse events related to copanlisib: Three mild-to-moderate gastrointestinal adverse events
[4]; abdominal pain, diarrhea and nausea
  Subjects with TEAEs assessed as related to the study drug: 2
[4]; abdominal pain, nausea, flatulence, frequent bowel movements, diarrhea
  Total number of gastrointestinal TEAEs: 5
[4]; all 6 healthy volunteers, all above 2/3 of the lower limit for normal values
  Neutrophils and leukocytes: transient decrease
[4]; human, in vivo
  Other laboratory values, ECG or vital signs: No clinically relevant changes
[4]; single i.v. dose of 12 mg copanlisib, 6 healthy subjects
  Tolerability: well tolerated
[4]; single i.v. dose of 12 mg, 6 healthy subjects
  Deaths or serious adverse events: No death or SAEs; also recorded: without any serious adverse event
[4]; single i.v. dose of 12 mg, 6 volunteers
  Volunteers with at least one treatment emergent adverse event (TEAE): Three out of the 6
PI3K-δ
  PI3K-δ inhibitory activity: predominant PI3K-α and PI3K-δ inhibitory activity
